# In ChEMBL document CHEMBL4507298 (2021):
# Tests used:
# [1] = biological target: Muscarinic acetylcholine receptor M3 (Homo sapiens) (UniProt P20309); settings: Compound concentration 10.0 uM
# [2] = biological target: Bone morphogenetic protein receptor type-1A (Homo sapiens) (UniProt P36894); settings: Compound concentration 1000.0 nM
# [3] = biological target: T1, Alpha-2C adrenergic receptor (Homo sapiens) (UniProt P18825); settings: Compound concentration 10.0 uM
# T1 sequence (whole entry): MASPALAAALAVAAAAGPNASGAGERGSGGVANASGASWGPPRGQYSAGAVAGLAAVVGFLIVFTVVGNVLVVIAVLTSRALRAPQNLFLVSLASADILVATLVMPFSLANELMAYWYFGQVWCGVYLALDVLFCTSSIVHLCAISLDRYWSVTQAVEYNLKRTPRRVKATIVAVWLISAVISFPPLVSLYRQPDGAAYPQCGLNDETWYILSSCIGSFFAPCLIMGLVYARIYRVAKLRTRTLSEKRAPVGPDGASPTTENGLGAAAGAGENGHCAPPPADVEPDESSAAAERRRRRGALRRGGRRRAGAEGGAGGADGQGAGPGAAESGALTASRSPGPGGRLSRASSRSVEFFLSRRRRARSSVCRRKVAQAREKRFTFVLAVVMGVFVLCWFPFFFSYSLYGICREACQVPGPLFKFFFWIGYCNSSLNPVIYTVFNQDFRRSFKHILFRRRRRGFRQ
# [4] = biological target: T2, 5-hydroxytryptamine receptor 2C (Homo sapiens) (UniProt P28335); settings: Compound concentration 10.0 uM
# T2 sequence (whole entry): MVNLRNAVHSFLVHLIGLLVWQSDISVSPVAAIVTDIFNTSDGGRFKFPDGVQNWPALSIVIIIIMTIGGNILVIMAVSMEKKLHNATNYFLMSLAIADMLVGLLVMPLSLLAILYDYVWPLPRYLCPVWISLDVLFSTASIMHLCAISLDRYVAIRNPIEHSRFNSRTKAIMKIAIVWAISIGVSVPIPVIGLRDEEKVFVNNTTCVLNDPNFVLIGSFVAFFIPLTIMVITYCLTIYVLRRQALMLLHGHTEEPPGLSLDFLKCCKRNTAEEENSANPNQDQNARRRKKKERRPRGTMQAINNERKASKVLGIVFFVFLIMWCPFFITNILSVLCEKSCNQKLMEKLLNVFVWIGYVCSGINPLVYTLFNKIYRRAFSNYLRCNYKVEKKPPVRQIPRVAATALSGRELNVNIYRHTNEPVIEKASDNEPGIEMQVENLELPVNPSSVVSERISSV
# [5] = biological target: T3, D(4) dopamine receptor (Homo sapiens) (UniProt P21917); settings: Compound concentration 10.0 uM
# T3 sequence (whole entry): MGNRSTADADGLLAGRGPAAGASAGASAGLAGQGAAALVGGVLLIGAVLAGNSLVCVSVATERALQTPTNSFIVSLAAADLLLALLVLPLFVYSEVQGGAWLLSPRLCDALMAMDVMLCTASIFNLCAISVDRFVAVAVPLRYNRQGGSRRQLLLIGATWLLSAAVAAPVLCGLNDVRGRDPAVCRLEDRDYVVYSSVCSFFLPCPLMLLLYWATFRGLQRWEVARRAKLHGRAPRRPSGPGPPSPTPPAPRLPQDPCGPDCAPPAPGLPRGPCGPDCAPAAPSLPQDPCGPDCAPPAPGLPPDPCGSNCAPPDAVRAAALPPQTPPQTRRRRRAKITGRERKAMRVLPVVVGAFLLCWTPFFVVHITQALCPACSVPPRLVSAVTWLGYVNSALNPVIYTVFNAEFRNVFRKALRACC
# [6] = biological target: T4, Muscarinic acetylcholine receptor M2 (Homo sapiens) (UniProt P08172); settings: Compound concentration 10.0 uM
# T4 sequence (whole entry): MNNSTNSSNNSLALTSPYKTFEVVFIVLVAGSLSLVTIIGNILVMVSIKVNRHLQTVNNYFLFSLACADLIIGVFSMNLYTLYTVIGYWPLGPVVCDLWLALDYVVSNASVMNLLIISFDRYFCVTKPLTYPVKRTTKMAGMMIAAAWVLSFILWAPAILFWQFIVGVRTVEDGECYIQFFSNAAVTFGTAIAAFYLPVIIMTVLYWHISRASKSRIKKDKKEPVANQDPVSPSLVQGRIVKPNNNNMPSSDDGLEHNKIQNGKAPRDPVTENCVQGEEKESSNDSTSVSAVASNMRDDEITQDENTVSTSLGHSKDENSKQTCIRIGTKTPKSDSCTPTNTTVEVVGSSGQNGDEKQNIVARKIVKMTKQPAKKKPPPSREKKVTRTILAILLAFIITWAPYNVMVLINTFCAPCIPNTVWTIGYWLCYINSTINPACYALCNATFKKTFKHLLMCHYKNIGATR
# [7] = biological target: Growth hormone secretagogue receptor type 1 (Homo sapiens) (UniProt Q92847); experiment: Ghrelin (h) (GHS) CEREP ligand profiling; settings: Compound concentration 10.0 uM
# [8] = biological target: Receptor-interacting serine/threonine-protein kinase 4 (Homo sapiens) (UniProt P57078); settings: Compound concentration 1000.0 nM
# [9] = biological target: Delta-type opioid receptor (Homo sapiens) (UniProt P41143); settings: Compound concentration 10.0 uM
# [10] = biological target: D(1B) dopamine receptor (Homo sapiens) (UniProt P21918); settings: Compound concentration 10.0 uM
# [11] = biological target: Activin receptor type-1B (Homo sapiens) (UniProt P36896); settings: Compound concentration 1000.0 nM
# [12] = biological target: T5, Alpha-2B adrenergic receptor (Homo sapiens) (UniProt P18089); settings: Compound concentration 10.0 uM
# T5 sequence (whole entry): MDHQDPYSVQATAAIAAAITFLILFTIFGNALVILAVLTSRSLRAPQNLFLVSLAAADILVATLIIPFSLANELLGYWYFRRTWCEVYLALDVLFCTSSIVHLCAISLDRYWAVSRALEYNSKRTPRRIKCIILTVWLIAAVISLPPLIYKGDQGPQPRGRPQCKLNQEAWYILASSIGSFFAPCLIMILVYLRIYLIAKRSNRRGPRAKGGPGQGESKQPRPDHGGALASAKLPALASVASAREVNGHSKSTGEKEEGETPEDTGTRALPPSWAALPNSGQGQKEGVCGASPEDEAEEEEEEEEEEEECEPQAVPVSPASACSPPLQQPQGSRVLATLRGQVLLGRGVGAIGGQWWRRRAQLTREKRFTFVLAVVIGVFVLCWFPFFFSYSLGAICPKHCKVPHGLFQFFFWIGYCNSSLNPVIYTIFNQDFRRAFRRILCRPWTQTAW
# [13] = biological target: 5-hydroxytryptamine receptor 2A (Homo sapiens) (UniProt P28223); settings: Compound concentration 10.0 uM
# [14] = biological target: CYP2C19 (Homo sapiens, UniProt P33261); experiment: CYP2C19 inhibition CEREP ligand profiling; settings: compound concentration 10 uM
# [15] = biological target: Histamine H2 receptor (Homo sapiens) (UniProt P25021); experiment: H2 (h) CEREP ligand profiling; settings: Compound concentration 10.0 uM
# Chain of Histamine H2 receptor (Homo sapiens) (P25021 whole entry): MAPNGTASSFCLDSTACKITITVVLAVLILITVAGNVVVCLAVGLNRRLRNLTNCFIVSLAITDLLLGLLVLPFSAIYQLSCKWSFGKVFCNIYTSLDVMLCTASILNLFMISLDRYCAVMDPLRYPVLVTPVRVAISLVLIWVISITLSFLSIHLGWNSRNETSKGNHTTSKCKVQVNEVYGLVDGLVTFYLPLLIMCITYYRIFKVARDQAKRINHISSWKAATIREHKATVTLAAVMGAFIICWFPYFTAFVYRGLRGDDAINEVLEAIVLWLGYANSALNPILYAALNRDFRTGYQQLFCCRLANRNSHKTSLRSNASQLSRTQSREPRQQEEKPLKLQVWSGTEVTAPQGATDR
# Chain of Muscarinic acetylcholine receptor M3 (Homo sapiens) (P20309 whole entry, looked up): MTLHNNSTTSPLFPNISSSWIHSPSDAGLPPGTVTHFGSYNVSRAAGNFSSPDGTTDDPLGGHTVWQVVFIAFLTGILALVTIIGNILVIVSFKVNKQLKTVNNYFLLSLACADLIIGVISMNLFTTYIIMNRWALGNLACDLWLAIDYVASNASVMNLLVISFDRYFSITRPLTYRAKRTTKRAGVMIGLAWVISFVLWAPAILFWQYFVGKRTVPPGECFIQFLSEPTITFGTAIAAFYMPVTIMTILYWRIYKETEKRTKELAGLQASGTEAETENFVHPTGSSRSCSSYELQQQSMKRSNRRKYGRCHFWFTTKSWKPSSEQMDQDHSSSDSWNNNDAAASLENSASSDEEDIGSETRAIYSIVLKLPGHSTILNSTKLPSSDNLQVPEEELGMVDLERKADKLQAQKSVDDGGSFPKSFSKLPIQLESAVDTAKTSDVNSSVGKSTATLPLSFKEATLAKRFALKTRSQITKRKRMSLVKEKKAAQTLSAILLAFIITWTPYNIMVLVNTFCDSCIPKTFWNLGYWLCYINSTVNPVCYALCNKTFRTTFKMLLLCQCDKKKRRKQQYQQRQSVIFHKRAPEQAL
# Chain of D(1B) dopamine receptor (Homo sapiens) (P21918 whole entry): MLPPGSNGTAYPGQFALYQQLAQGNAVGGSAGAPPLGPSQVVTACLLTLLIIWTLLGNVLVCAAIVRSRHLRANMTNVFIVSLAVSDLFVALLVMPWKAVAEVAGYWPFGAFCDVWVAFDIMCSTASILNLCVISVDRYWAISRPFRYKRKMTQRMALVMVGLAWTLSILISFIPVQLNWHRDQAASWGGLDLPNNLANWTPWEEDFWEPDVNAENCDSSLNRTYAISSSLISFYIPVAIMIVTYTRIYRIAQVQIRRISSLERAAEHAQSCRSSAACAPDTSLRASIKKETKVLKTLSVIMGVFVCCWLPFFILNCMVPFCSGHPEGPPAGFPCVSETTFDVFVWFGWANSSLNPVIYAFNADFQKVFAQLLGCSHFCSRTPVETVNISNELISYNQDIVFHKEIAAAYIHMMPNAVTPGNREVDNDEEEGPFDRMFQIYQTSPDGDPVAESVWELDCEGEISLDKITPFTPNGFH
# Chain of 5-hydroxytryptamine receptor 2A (Homo sapiens) (P28223 whole entry): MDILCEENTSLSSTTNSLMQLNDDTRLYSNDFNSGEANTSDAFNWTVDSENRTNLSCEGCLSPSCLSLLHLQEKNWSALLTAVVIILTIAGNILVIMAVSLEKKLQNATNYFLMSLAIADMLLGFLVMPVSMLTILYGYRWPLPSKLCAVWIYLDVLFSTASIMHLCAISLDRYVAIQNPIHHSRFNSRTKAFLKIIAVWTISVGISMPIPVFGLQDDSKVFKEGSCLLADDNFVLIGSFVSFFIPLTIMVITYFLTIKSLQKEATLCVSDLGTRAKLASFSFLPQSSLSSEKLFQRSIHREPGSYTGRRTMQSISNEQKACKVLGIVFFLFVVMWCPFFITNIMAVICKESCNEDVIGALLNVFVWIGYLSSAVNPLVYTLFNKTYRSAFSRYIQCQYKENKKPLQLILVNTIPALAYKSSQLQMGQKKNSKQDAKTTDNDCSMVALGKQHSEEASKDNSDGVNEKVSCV
# Chain of Delta-type opioid receptor (Homo sapiens) (P41143 whole entry): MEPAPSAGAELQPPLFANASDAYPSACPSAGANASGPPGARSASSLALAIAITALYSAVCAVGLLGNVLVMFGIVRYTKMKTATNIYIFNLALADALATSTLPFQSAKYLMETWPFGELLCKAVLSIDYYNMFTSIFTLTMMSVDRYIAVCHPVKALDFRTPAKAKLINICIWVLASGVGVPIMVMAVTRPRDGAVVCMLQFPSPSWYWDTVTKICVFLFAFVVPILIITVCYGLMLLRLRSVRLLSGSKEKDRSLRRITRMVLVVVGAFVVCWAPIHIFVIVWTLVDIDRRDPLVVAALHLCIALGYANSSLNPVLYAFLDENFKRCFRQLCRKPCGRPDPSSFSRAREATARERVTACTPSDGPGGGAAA
# Chain of Growth hormone secretagogue receptor type 1 (Homo sapiens) (Q92847 whole entry): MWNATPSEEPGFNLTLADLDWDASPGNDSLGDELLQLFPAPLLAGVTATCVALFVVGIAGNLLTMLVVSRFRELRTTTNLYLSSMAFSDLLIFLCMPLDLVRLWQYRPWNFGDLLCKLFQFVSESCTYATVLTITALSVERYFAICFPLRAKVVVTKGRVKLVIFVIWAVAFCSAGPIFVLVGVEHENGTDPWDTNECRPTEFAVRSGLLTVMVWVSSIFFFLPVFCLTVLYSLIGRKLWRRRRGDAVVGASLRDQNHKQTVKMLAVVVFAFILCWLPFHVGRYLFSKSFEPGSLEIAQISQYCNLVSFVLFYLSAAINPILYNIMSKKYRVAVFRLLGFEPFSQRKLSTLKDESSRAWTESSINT
# Chain of CYP2C19 (P33261 whole entry): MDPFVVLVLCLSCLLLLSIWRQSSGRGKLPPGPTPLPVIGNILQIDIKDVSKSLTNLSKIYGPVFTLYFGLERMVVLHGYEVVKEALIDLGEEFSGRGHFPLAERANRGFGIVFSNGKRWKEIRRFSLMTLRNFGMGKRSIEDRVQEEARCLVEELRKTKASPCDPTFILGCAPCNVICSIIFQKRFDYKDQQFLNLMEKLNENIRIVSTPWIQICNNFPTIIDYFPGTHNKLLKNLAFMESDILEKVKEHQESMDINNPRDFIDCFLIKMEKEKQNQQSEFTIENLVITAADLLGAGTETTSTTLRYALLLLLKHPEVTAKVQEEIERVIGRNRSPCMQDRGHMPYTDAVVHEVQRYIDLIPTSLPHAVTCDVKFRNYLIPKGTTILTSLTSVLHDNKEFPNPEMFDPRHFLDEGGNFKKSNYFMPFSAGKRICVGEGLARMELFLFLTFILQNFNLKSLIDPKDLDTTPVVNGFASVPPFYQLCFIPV
# Chain of Receptor-interacting serine/threonine-protein kinase 4 (Homo sapiens) (P57078 whole entry): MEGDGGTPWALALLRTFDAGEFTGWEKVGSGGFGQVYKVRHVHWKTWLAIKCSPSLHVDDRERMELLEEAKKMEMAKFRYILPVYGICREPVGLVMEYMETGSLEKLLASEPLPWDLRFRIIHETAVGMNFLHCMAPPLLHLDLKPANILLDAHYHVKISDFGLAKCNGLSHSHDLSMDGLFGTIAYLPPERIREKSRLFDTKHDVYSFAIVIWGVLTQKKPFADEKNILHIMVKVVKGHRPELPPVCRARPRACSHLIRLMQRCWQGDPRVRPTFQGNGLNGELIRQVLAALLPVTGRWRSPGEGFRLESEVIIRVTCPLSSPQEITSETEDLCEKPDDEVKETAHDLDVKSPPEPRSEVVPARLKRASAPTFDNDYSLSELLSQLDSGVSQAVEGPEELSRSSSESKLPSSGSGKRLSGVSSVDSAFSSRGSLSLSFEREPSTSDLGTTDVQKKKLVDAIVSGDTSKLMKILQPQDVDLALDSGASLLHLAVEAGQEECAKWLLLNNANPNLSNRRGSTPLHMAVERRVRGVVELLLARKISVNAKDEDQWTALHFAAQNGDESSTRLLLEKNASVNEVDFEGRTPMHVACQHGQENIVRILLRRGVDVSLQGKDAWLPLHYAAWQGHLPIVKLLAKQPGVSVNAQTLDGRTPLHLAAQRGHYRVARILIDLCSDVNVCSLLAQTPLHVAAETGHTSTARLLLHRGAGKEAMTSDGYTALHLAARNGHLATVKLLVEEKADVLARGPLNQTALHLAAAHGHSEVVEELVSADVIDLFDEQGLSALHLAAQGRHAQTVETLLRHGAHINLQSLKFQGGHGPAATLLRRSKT
# Chain of Bone morphogenetic protein receptor type-1A (Homo sapiens) (P36894 whole entry): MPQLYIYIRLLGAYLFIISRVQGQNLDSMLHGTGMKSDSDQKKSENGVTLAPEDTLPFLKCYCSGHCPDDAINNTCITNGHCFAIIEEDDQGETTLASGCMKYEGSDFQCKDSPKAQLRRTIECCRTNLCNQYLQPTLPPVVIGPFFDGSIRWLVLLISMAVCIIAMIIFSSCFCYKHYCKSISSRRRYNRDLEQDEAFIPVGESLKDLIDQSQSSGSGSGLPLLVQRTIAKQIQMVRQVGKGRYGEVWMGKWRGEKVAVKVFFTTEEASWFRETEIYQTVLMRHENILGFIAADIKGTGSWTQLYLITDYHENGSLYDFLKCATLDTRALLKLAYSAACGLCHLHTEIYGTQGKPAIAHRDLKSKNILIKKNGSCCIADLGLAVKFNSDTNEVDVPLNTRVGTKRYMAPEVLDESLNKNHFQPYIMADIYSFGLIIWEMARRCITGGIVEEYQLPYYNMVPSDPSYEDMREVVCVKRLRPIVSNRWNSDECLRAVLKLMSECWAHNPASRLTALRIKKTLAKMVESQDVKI
# Chain of Activin receptor type-1B (Homo sapiens) (P36896 whole entry): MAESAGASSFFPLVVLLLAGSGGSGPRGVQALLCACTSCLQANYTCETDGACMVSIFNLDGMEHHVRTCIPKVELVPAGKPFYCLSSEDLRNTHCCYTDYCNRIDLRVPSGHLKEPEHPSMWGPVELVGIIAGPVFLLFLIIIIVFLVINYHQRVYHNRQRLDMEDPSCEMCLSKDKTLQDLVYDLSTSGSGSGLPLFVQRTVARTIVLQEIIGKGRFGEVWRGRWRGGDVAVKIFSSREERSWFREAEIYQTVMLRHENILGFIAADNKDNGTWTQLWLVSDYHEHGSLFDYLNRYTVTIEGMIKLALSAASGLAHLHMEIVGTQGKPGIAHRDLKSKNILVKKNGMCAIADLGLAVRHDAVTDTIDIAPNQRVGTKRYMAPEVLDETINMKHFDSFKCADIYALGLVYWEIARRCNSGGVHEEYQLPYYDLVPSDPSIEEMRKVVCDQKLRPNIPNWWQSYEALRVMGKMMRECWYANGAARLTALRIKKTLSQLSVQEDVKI
SMILES,inhibition [1],residual activity [2],inhibition [3],inhibition [4],inhibition [5],inhibition [6],inhibition [7],residual activity [8],inhibition [9],inhibition [10],residual activity [11],inhibition [12],inhibition [13],inhibition at 10 µM [14],inhibition [15]
COc1ccc2cc(OCC3(C(=O)O)CN(C(=O)c4ccc(F)cc4)C3)ccc2c1 [PF-04418948],19.2%,88%,9.72%,12.3%,8.76%,16.7%,-6%,66%,5.07%,-2.51%,78%,9.24%,6.25%,5% (not active),3%
O=C(c1ccc(F)cc1)N1CC(COc2ccc(Br)cc2)(C(=O)O)C1 [PF-04475866],27.9%,,11.3%,30.2%,-7.87%,26.7%,,,-5.22%,2.2%,,12.1%,-2.23%,,
